# Reference: the supplement of paper PMC10307832
# How the values were obtained:
# Assay in all cases: relative viability (nuclei count vs DMSO), 5 days (fraction); higher = more cells survive
# A-427 = system: A-427
# Summary of the method: (§1)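 Lung cancer cell lines in 1536-well plates got either a single drug or a fixed anchor-drug dose together with five library-drug doses (not always all listed) in √10 steps, by pin tool, on the day after seeding. Nuclei were counted after 5 days, and relative viability is the treated-to-vehicle ratio of nuclei counts. Values are medians of duplicate plates.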
# COR-L 105 = system: COR-L 105
# Summary of the method: as §1
# EKVX = system: EKVX
# Summary of the method: as §1
# EMC-BAC-2 = system: EMC-BAC-2
# Summary of the method: as §1
# EPLC-272H = system: EPLC-272H
# Summary of the method: as §1
# HARA = system: HARA
# Summary of the method: as §1
# HCC-44 = system: HCC-44
# Summary of the method: as §1
# LK-2 = system: LK-2
# Summary of the method: as §1
# LU99A = system: LU99A
# Summary of the method: as §1
# NCI-H1734 = system: NCI-H1734
# Summary of the method: as §1
# NCI-H1755 = system: NCI-H1755
# Summary of the method: as §1
# NCI-H1792 = system: NCI-H1792
# Summary of the method: as §1
# NCI-H1993 = system: NCI-H1993
# Summary of the method: as §1
# NCI-H2405 = system: NCI-H2405
# Summary of the method: as §1
# NCI-H358 = system: NCI-H358
# Summary of the method: as §1
# NCI-H460 = system: NCI-H460
# Summary of the method: as §1
# NCI-H596 = system: NCI-H596
# Summary of the method: as §1
# NCI-H647 = system: NCI-H647
# Summary of the method: as §1
# RERF-LC-KJ = system: RERF-LC-KJ
# Summary of the method: as §1
structure (smiles),measurement,setting,value
CCNC(=O)c1noc(-c2cc(C(C)C)c(O)cc2O)c1-c1ccc(CN2CCOCC2)cc1 [Luminespib] + Cc1nc(NC(=O)N2CCC[C@H]2C(N)=O)sc1-c1ccnc(C(C)(C)C(F)(F)F)c1 [Alpelisib] (partner 2 µM),relative viability,A-427; first compound 0.002 µM,1.02
same,relative viability,A-427; first compound 0.006325 µM,1.07
same,relative viability,A-427; first compound 0.02 µM,0.697
same,relative viability,A-427; first compound 0.06325 µM,1.08
same,relative viability,A-427; first compound 0.2 µM,1.09
same,relative viability,COR-L 105; first compound 0.002 µM,1.04
same,relative viability,COR-L 105; first compound 0.006325 µM,0.96
same,relative viability,COR-L 105; first compound 0.02 µM,1.35
same,relative viability,COR-L 105; first compound 0.06325 µM,0.343
same,relative viability,COR-L 105; first compound 0.2 µM,0.181
same,relative viability,EKVX; first compound 0.002 µM,0.972
same,relative viability,EKVX; first compound 0.006325 µM,0.928
same,relative viability,EKVX; first compound 0.02 µM,0.514
same,relative viability,EKVX; first compound 0.06325 µM,1.07
same,relative viability,EKVX; first compound 0.2 µM,0.315
same,relative viability,EMC-BAC-2; first compound 0.002 µM,0.746
same,relative viability,EMC-BAC-2; first compound 0.006325 µM,0.707
same,relative viability,EMC-BAC-2; first compound 0.02 µM,0.61
same,relative viability,EMC-BAC-2; first compound 0.06325 µM,0.771
same,relative viability,EMC-BAC-2; first compound 0.2 µM,0.762
same,relative viability,EPLC-272H; first compound 0.006325 µM,0.811
same,relative viability,EPLC-272H; first compound 0.02 µM,0.674
same,relative viability,EPLC-272H; first compound 0.06325 µM,0.879
same,relative viability,EPLC-272H; first compound 0.2 µM,0.93
same,relative viability,HARA; first compound 0.002 µM,0.835
same,relative viability,HARA; first compound 0.006325 µM,0.676
same,relative viability,HARA; first compound 0.02 µM,0.85
same,relative viability,HARA; first compound 0.06325 µM,0.759
same,relative viability,HARA; first compound 0.2 µM,0.103
same,relative viability,HCC-44; first compound 0.002 µM,0.82
same,relative viability,HCC-44; first compound 0.006325 µM,0.886
same,relative viability,HCC-44; first compound 0.02 µM,0.851
same,relative viability,HCC-44; first compound 0.06325 µM,0.152
same,relative viability,HCC-44; first compound 0.2 µM,0.154
same,relative viability,LK-2; first compound 0.002 µM,1.26
same,relative viability,LK-2; first compound 0.006325 µM,1.31
same,relative viability,LK-2; first compound 0.02 µM,0.691
same,relative viability,LK-2; first compound 0.06325 µM,0.71
same,relative viability,LK-2; first compound 0.2 µM,0.259
same,relative viability,LU99A; first compound 0.002 µM,0.534
same,relative viability,LU99A; first compound 0.006325 µM,0.526
same,relative viability,LU99A; first compound 0.02 µM,0.311
same,relative viability,LU99A; first compound 0.06325 µM,0.11
same,relative viability,LU99A; first compound 0.2 µM,0.0992
same,relative viability,NCI-H1734; first compound 0.002 µM,0.708
same,relative viability,NCI-H1734; first compound 0.006325 µM,0.736
same,relative viability,NCI-H1734; first compound 0.02 µM,0.541
same,relative viability,NCI-H1734; first compound 0.06325 µM,0.213
same,relative viability,NCI-H1734; first compound 0.2 µM,0.158
same,relative viability,NCI-H1755; first compound 0.002 µM,0.972
same,relative viability,NCI-H1755; first compound 0.006325 µM,0.887
same,relative viability,NCI-H1755; first compound 0.02 µM,0.823
same,relative viability,NCI-H1755; first compound 0.06325 µM,0.905
same,relative viability,NCI-H1755; first compound 0.2 µM,0.561
same,relative viability,NCI-H1792; first compound 0.002 µM,0.595
same,relative viability,NCI-H1792; first compound 0.006325 µM,0.621
same,relative viability,NCI-H1792; first compound 0.02 µM,0.355
same,relative viability,NCI-H1792; first compound 0.06325 µM,0.308
same,relative viability,NCI-H1792; first compound 0.2 µM,0.1
same,relative viability,NCI-H1993; first compound 0.002 µM,0.676
same,relative viability,NCI-H1993; first compound 0.006325 µM,0.74
same,relative viability,NCI-H1993; first compound 0.02 µM,0.588
same,relative viability,NCI-H1993; first compound 0.06325 µM,0.606
same,relative viability,NCI-H1993; first compound 0.2 µM,0.548
same,relative viability,NCI-H2405; first compound 0.002 µM,0.968
same,relative viability,NCI-H2405; first compound 0.006325 µM,0.513
same,relative viability,NCI-H2405; first compound 0.02 µM,0.483
same,relative viability,NCI-H2405; first compound 0.06325 µM,0.19
same,relative viability,NCI-H2405; first compound 0.2 µM,0.15
same,relative viability,NCI-H358; first compound 0.002 µM,0.841
same,relative viability,NCI-H358; first compound 0.006325 µM,0.76
same,relative viability,NCI-H358; first compound 0.02 µM,0.635
same,relative viability,NCI-H358; first compound 0.06325 µM,0.117
same,relative viability,NCI-H358; first compound 0.2 µM,0.128
same,relative viability,NCI-H460; first compound 0.002 µM,0.508
same,relative viability,NCI-H460; first compound 0.006325 µM,0.447
same,relative viability,NCI-H460; first compound 0.02 µM,0.0191
same,relative viability,NCI-H460; first compound 0.06325 µM,0.0086
same,relative viability,NCI-H460; first compound 0.2 µM,0.0122
same,relative viability,NCI-H596; first compound 0.002 µM,0.517
same,relative viability,NCI-H596; first compound 0.006325 µM,0.45
same,relative viability,NCI-H596; first compound 0.06325 µM,0.44
same,relative viability,NCI-H596; first compound 0.2 µM,0.464
same,relative viability,NCI-H647; first compound 0.002 µM,1.25
same,relative viability,NCI-H647; first compound 0.006325 µM,1.12
same,relative viability,NCI-H647; first compound 0.02 µM,1.03
same,relative viability,NCI-H647; first compound 0.06325 µM,0.103
same,relative viability,NCI-H647; first compound 0.2 µM,0.0917
same,relative viability,RERF-LC-KJ; first compound 0.002 µM,0.813
same,relative viability,RERF-LC-KJ; first compound 0.006325 µM,0.894
same,relative viability,RERF-LC-KJ; first compound 0.02 µM,0.51
same,relative viability,RERF-LC-KJ; first compound 0.06325 µM,0.541
same,relative viability,RERF-LC-KJ; first compound 0.2 µM,0.242
